In patent US9730928B2, “Trizol-1-OL analogs anti-retroviral latency drugs” (priority 2013, dated 2017):
Entries after “also recorded” stand apart in the source; their conditions may differ.

Key:
latent HIV-1 [1] = test: Blocking of viral reactivation by chemical inhibitors of known signaling pathways; assay type: cell-based; details: reactivation stimulus HOAt
From the text: The ability of chemical inhibitors of known signaling pathways to block viral reactivation mediated by HOAt was examined (FIG. 4A). […] Activation of JAK kinases lead to the activation of the transcription factors STATs. Specific inhibitors of STAT3 and STAT5 were thus also studied.

pSTAT5 [2] = test: pSTAT5 levels 48 h after IL-2 plus derivatives, flow cytometer; assay type: cell-based; details: with IL-2, 48 h
Procedure: Cells were treated with IL-2 and several derivatives of HOAt. Levels of pSTAT5 were measured 48 h later by flow cytometer.

latent HIV-1 [3] = test: Reactivation of latent HIV-1 in latently infected cultured TCM (GFP / p24Gag by flow cytometry); assay type: cell-based; details: for ability to induce viral reactivation compared to the original hit HOBt: panel of 7 derivatives of HOBt (FIG. 2D); for activation of latent HIV-1 (viral reactivation): 72 hours after stimulation, GFP or p24Gag by flow cytometry
From the text: A novel primary cell model for the study of HIV-1 latency was adapted so as to be suitable for high-throughput screening (HTS) of new compounds that may reactivate HIV-1 from its latency state (Bosque and Planelles, 2009; Bosque and Planelles, 2010; and patent application: Methods and compositions relating to viral latency, Planelles V, Basque A, U.S. Patent Application 2010/0291067 A1, November 2010).
To facilitate HTS, the nef gene was replaced with that encoding the green fluorescent protein (GFP). It was confirmed that deletion of nef has no effect in latency/reactivation (Bosque and Planelles, 2009) and that using GFP provides a faster, more economical, and equally sensitive, as compared to intracellular p24 detection, readout.
The reactivation experiments were modified to be performed in 96-well plates, utilizing 100,000 cells per well. After reactivation, flow cytometric analysis was performed with Becton Dickinson FACSCanto II with a High Throughput Sampler (HTS) for microtiter plates that is available through the Flow Cytometry Core Facility at the University of Utah. It takes about 30 minutes to analyze a plate, when acquiring 10,000 cells per well. Analysis for each well includes (a) green fluorescence as a direct indicator of viral reactivation; and (b) forward and side scatter as general measures of cell morphology, which is a gross indication of viability.
Latently infected cells were generated using healthy, uninfected DONOR 78 cells that were infected with DHIV virus. Reactivation was monitored by analysis of GFP by Flow Cytometry 72 hours after stimulation. Beads coated with anti-CD3/anti CD28 (CD3/CD28) were used as a positive reactivation stimulus. Reactivation was done in a 96-well plate round bottom. […] This compound is an intermediate en route to synthesis of a cyclic peptide isolated from a tunicate.
HPLC was used to generate 20 fractions based on elution time using a gradient from 10-100% acetonitrile in 0.1% formic acid using a Phenomenex Kinetic C18 50×2.10 mm column ([…], 100 A). The ability of these fractions to activate HIV-1 was tested and compared in parallel with the original hit. […] Further fractionation of C7 was performed and each fraction tested at the concentration indicated in the graph (FIG. 1D). […] Finally, HOBt was tested at different concentrations and analyzed on either Day 3, Day 5, or Day 7.

latent HIV-1 [4] = test: Reactivation of latent HIV-1 in cells isolated from aviremic HIV-1 patients; assay type: cell-based; details: cells of two patients suppressed with antiretroviral; versus DMSO control
From the text: Briefly, cells for two patients suppressed with antiretroviral were isolated and treated with either DMSO (Control), HOAt or the mitogen PHA.

STAT5 [5] = test: Nuclear localization of STAT5; assay type: cell-based, human; details: IL-2 alone or in the presence of HOAt
From the text: Nuclear translocation of STAT5 is required for its transcriptional activity. […] Histone H3 and alpha Tubulin were used as controls for purity of the fractionation.

latent HIV-1 [6] = test: Reactivation of latent HIV-1 in absence or presence of γc-cytokines; assay type: cell-based; details: for viral reactivation in the presence of IL-2, IL-4, and IL-15: as worded; for viral reactivation in the presence of IL-2, IL-7 and IL-5: as worded in FIG. 3 legend b37; for viral reactivation in combination with IL-4: combined with IL-4; for viral reactivation in combination with IL-9 and IL-21: combined with IL-9 or IL-21; for viral reactivation in the absence of γc-cytokines: no cytokines, p24Gag 72 hours; for viral reactivation by cytokine alone: cytokine by itself, compared with absence of cytokines
Procedure: Latently infected cells were generated using healthy, uninfected DONOR 78 cells that were infected with DHIV virus. Reactivation was monitored by analysis of p24Gag by Flow Cytometry 72 hours after stimulation.

pSTAT5 [7] = test: pSTAT5 immunoprecipitation and western blot; assay type: cell-based; details: 30 min pretreatment, then IL-2 for 30 min
Procedure: STAT5 was immunoprecipitated with antibodies specific for the phosphorylated protein and western blot was performed against pSTAT5.

STAT5 [8] = test: STAT5 phosphorylation by flow cytometry in cultured TCM; assay type: cell-based, human
Procedure: The levels of STAT5 phosphorylation were analyzed by flow cytometry after incubating cultured TCM with HOAt, IL-2, or a combination of both, during a 24 h period (FIG. 4B).

SOCS3 = test: Expression levels of SOCS3, a target gene for STAT5; assay type: cell-based, human; details: IL-2 and HOAt, 24 h post-treatment
Procedure: STAT5 is a transcriptional activator of multiple genes. To address whether HOAt will increase the transcription of any STAT5 target genes, the expression levels of SOCS3, a target gene for STAT5, were analyzed.

latent HIV-1 [9] = test: Viral reactivation mediated by other stimuli (PMA, ionomycin, SAHA); assay type: cell-based; details: HOAt added to each of three stimuli
[10] = tested on: memory T cells / cultured TCM; test: T cell activation (activation markers CD25 and CD69); assay type: cell-based, human; details: for increase of CD25 levels (mean intensity of fluorescence): maximum concentration used (compound), TCR engagement (αCD3/αCD28)
From the text: (§1) Memory cells were generated from 3 different donors and treated with either HOBt or anti-CD3/CD28 to analyze the effect of HOBt on T cell activation (FIG. 6A). Analysis of T cell activation was done by analyzing the upregulation of the activation markers CD25 and CD69 three days post activation. […] Analysis of T cell differentiation was done by analyzing the levels of CCR7 and CD27 three days post activation (FIG. 6B).
(§2) In order to determine whether HOAt is inducing T cell proliferation, culter TCM were incubated with HOAt in a dose dependent manner. […] It has been shown previously that both cultured TCM and ex vivo TCM express low levels of CD25 (Bosque et al. 2011). This level is increased by 37 times after TCR engagement with αCD3/αCD28, measured as mean intensity of fluorescence (values between parenthesis, FIG. 6D).
CD69 upregulation is concomitant with T cell activation.

cultured TCM = test: T cell proliferation of cultured TCM; assay type: cell-based, human; details: dose dependent incubation
Procedure: as §2

memory T cells = test: T cell differentiation (CCR7 and CD27 levels); assay type: cell-based, human; details: three days post activation
From the text: as §1

## Cc1ccc2nc(NCCN)c3ncc(C)n3c2c1 [BMS345541]
Latent HIV-1 [1]
  effect on viral reactivation induced by HOAt: did not have a significant effect

## O=c1c2ccccc2nnn1O [HO-DhBt, 3-hydroxybenzo[d][1,2,3]triazin-4-(3H)-one]
pSTAT5 [2]
  maintenance of pSTAT5 levels: maintain pSTAT5 levels in a dose dependent manner
Latent HIV-1 [3]
  ability to induce viral reactivation compared to the original hit HOBt: able to induce viral reactivation in a dose dependent manner and with increased efficiency; also recorded: increased ability to induce viral reactivation in a dose dependent manner

## On1nnc2cccnc21 [HOAt, 1-hydroxy-7-azabenzotriazole]
pSTAT5 [2]
  maintenance of pSTAT5 levels: maintain pSTAT5 levels in a dose dependent manner
Latent HIV-1 [4]
  regrowth of latent viruses in patient cells in vitro: can induce regrowth of latent viruses in both patients
STAT5 [5]
  pSTAT5 and STAT5 levels in the nucleus: increased in the nucleus; also recorded: increases the nuclear localization of STAT5
Latent HIV-1 [6]
  viral reactivation in the presence of IL-2, IL-4, and IL-15: dramatically increase viral reactivation
  viral reactivation in the presence of IL-2, IL-7 and IL-5: increase viral reactivation
  viral reactivation in combination with IL-4: induced significant viral reactivation; also recorded: did induce significant viral reactivation
  viral reactivation in combination with IL-9 and IL-21: did not have an effect in viral reactivation
  viral reactivation in the absence of γc-cytokines: significantly reactivate HIV-1 latency
pSTAT5 [7]
  levels of pSTAT5 in the inputs: increases the levels of pSTAT5
Latent HIV-1 [3]
  activation of latent HIV-1 (viral reactivation): able to reactivate HIV-1 latency; also recorded: activates HIV-1 latent cells; also recorded: activate latent HIV-1; also recorded: reactivate HIV-1 latency in a dose dependent manner
  ability to induce viral reactivation compared to the original hit HOBt: more potent analog than the original hit; also recorded: increased activity compared to HOBt
STAT5 [8]; HOAt alone
  STAT5 phosphorylation, agent alone over untreated cells: able to induce an increase in STAT5 phosphorylation over untreated cells
STAT5 [8]; IL-2 and HOAt
  STAT5 phosphorylation, combination with IL-2: drastic increase in STAT5 phosphorylation
STAT5 [8]; IL-2 and HOAt, 24 hrs
  STAT5 phosphorylation after 24 hrs, combination with IL-2: do not significantly decrease
SOCS3
  levels (transcription) of SOCS3: increase the levels of SOCS3; also recorded: increases the transcription of SOC3S
Latent HIV-1 [9]
  viral reactivation mediated by PMA, ionomycin and SAHA: able to increase viral reactivation mediated by these three stimuli; also recorded: increases viral reactivation
[10]; CD69 upregulation
  levels of T cell activation (CD69) compared with αCD3/αCD28: slightly increases the levels of T cell activation
[10]
  increase of CD25 levels (mean intensity of fluorescence): 1.4 times
Cultured TCM
  T cell proliferation: only induces some degree of cell proliferation at the higher concentration tested

## On1nnc2ccccc21 [HOBt, 1-hydroxybenzotriazole]
pSTAT5 [2]
  maintenance of pSTAT5 levels: maintain pSTAT5 levels in a dose dependent manner
Latent HIV-1 [6]
  viral reactivation in the presence of IL-2, IL-4, and IL-15: dramatically increase viral reactivation
  viral reactivation in the presence of IL-2, IL-7 and IL-5: increase viral reactivation
  viral reactivation in combination with IL-4: induced significant viral reactivation; also recorded: did induce significant viral reactivation
  viral reactivation in combination with IL-9 and IL-21: did not have an effect in viral reactivation
  viral reactivation in the absence of γc-cytokines: significantly reactivate HIV-1 latency
Latent HIV-1 [3]
  activation of latent HIV-1 (viral reactivation): activate latent HIV-1 in a dose-dependent manner; also recorded: able to reactivate HIV-1 latency; also recorded: reactivate HIV-1 latency in a dose dependent manner; also recorded: activates HIV-1 latent cells
Latent HIV-1 [3]; analyzed on Day 3, Day 5, or Day 7
  kinetics of HIV-1 latency reactivation compared with anti-CD3/CD28: slower kinetics
Memory T cells
  T cell differentiation (loss of CCR7 and CD27 expression): does not induce T cell differentiation
[10]
  increase of CD25 levels (mean intensity of fluorescence): 1.4 times
[10]; three days post activation, 3 donors
  general T cell activation (upregulation of CD25 and CD69): does not induce general T cell activation
Cultured TCM
  T cell proliferation: only induces some degree of T cell proliferation at the higher concentration tested

## O=C(N/N=C/c1coc2ccccc2c1=O)c1cccnc1 [STAT5 inhibitor]
Latent HIV-1 [1]
  effect on viral reactivation induced by HOAt: completely abrogates viral reactivation; also recorded: completely prevent activation of latent HIV-1 by HOAt

## IL-9: γc-cytokine
Latent HIV-1 [6]
  viral reactivation by cytokine alone: did not have an effect in viral reactivation; also recorded: no effect

## IL-21: γc-cytokine
Latent HIV-1 [6]
  viral reactivation by cytokine alone: did not have an effect in viral reactivation; also recorded: no effect

B1: IL-7: γc-cytokine (protein, UniProt P13232 26-177, looked up)
Interleukin-7: DCDIEGKDGKQYESVLMVSIDQLLDSMKEIGSNCLNNEFNFFKRHICDANKEGMFLFRAARKLRQFLKMNSTGDFDLHLLKVSEGTTILLNCTGQVKGRKPAALGEAQPTKSLEENKSLKEQKKLNDLCFLKRLLQEIKTCWNKILMGTKEH
Latent HIV-1 [6]
  viral reactivation by cytokine alone: trend towards increasing viral reactivation

B2: IL-4: γc-cytokine (protein, UniProt P05112 25-153, looked up)
Interleukin-4: HKCDITLQEIIKTLNSLTEQKTLCTELTVTDIFAASKNTTEKETFCRAATVLRQFYSHHEKDTRCLGATAQQFHRHKQLIRFLKRLDRNLWGLAGLNSCPVKEANQSTLENFLERLKTIMREKYSKCSS
Latent HIV-1 [6]
  viral reactivation by cytokine alone: not able to induce significant viral reactivation by itself; also recorded: did not induce viral reactivation by itself
